Data published in patent US8389558B2, “Bendamustine amphiphilic anionic compositions” (Supratek Pharma Inc., priority 2009, dated 2013).
Counter-ions that a name gives are not always drawn.

What was measured:
[1] = Bendamustine chemical stability in formulations with amphiphilic anionic agents and phosphate buffer (HPLC, first order kinetics); format: physicochemical; conditions: 0.6 mg/mL bendamustine, 1% (w/v) aqueous amphiphilic anionic agent, 6 mM phosphate buffer pH 7.2, 25° C.; read-out: decomposition half time (T½) of bendamustine
Method: Formulations were prepared by dissolving bendamustine hydrochloride in pre-equilibrated 1% (w/v) aqueous solution of amphiphilic anionic agent containing 6 mM phosphate buffer, pH 7.2. The final concentration of bendamustine was 0.6 mg/mL. The formulations were incubated at 25° C., and were periodically analyzed by HPLC as follows. 10 μL samples were separated using Waters SymmetryShield RP-18 3.5 μm column (4.6×50 mm) at the flow of 1.5 mL/min of acetonitrile-water gradient containing 0.1% TFA. Peak detection has been performed with means of UV absorption detection at 260 nm. The area of the peak of Bendamustine was used to evaluate the rate of drug decomposition in the first order kinetics model.

[2] = 23° C.; cited from earlier work

Structure (SMILES) | half-life at 0.6 mg/mL [1] [min] | time for which stable in saline solution [2] [h]
Cn1c(CCCC(=O)O)nc2cc(N(CCCl)CCCl)ccc21 [Control (phosphate buffer), bendamustine hydrochloride] | 44 | –
Cn1c(CCCC(=O)O)nc2cc(N(CCCl)CCCl)ccc21 [bendamustine hydrochloride] | – | 9
